Measurements as given in patent publication US20260137696A1, “Compositions Comprising an Inhibitor of Galectin-3” (University of Liverpool, priority 2023, published 2026).

Tests used:
[1] = tested on: HUVEC cells; details: human, 24 h, 100 uM
Experimental: (§1) The compounds of Formula I and Formula II cytotoxicity in human colon cancer SW620 (FIG. 8A), vascular HUVEC (FIG. 8B) and human melanoma ACA19 (FIG. 9C) cells was assessed in the absence or presence of various concentrations of the compounds of Formula I and Formula II (the chemotherapeutic drug Etoposide, Etop, was also included as positive control) by Lactate dehydrogenase (LDH) release assay.
as §1, with “(ACA19+) cells, which” for “ACA19 (FIG. 9C) cells”
(§2) SW620 and ACA19+ cells (5×10^4 cells/ml) were seeded into 96-well plate in DMEM and incubated at […] 5% CO2 for 24 hr. HUVECs (1.0×10^5 cells/ml) was seeded in EBM medium and incubated for 24-36 hr until they formed a monolayer. Compound inhibitors at different concentrations were then introduced to the cells (10× lysis buffer was included as maximum LDH activity control) for 24 hr. The culture medium was transferred to a new plate and was mixed with equal volume of reaction mixture provided in the kit for 30 min at room temperature before the absorbance was measured at 490 nm (reference 680 nm) by a spectrophotometer.

[2] = tested on: SW620 cells; details: human, 24 h, 100 uM
Experimental: as §1
as §1, with “(ACA19+) cells, which” for “ACA19 (FIG. 9C) cells”
as §2

[3] = tested on: ACA19 cells; details: human, 24 h, 100 uM
Experimental: as §1
as §1, with “(ACA19+) cells, which” for “ACA19 (FIG. 9C) cells”
as §2

[4] = tested on: Salmonella typhimurium strain TA100; assay: Ames test (genotoxicity); format: cell-based
Experimental: (§3) Mutagenic potential of the compound of Formula I was assessed by Ames test in two Salmonella typhimurium strains TA98 and TA100 without and with metabolic activation (S9).
(§4) Effect of the compound inhibitors on genotoxicity was determined using the Salmonella typhimurium strains of TA 98 and TA 100 in the presence and absence of metabolic activation (S9). Each test concentration included the vehicle and positive controls. Briefly, the compounds were serially diluted in 24-well plates with or without the presence metabolic activation system (S9) and was incubated for 90 min at 37° C. in 250 rpm in a orbital shaking incubator. TA98 and TA100 were then introduced to the wells for 90 min. 50 μL aliquots from each well was dispensed into 384 well plates and incubated for 48 hrs at 37° C. in an incubator before positive wells were scored.

[5] = tested on: Salmonella typhimurium strain TA98; assay: Ames test (genotoxicity); format: cell-based
Experimental: as §3, §4

SMILES	cytotoxicity (LDH release) [1] [%]	cytotoxicity (LDH release) [2] [%]	cytotoxicity (LDH release) [3] [%]	revertant colony count [4]	revertant colony count [5]
COc1cc([C@@H]2c3cc4c(cc3[C@@H](O[C@@H]3O[C@@H]5CO[C@@H](C)O[C@H]5[C@H](O)[C@H]3O)[C@H]3COC(=O)[C@H]23)OCO4)cc(OC)c1O [Etoposide]	~100	~100	~100	–	–
Nc1ccc2cc3ccccc3cc2c1 [Formula 2AA, reference compound]	–	–	–	distinct increase	distinct increase
